According to patent US9192569B2, “Formulations for infusion of type B lantibiotics” (Novacta Biosystems Limited, priority 2010, dated 2015):

Legend:
[1] = In vivo plasma half-life in mice; details: mouse, IV, 9.3 mL/Kg of 3.2 mg/mL solution of Example 1, LC-MS
Protocol: In vivo Plasma Half-life of Compounds of the Present Invention in Mice.
The in vivo half-life of Compound 1 in mice was determined by measurement of its plasma concentrations at various time points following IV dosing. 18 male CD-1 mice aged 7-9 weeks were dosed IV with a 9.3 mL/Kg dose of a 3.2 mg/mL solution of Example 1 in 15% hydroxyl-propyl-beta-cyclodextrin/4.4% glucose/1 mM potassium phosphate (pH=7.6). Plasma samples were obtained at 10, 20, 30, 60, 120 and 240 min post-dose, sampling from 3 animals at each time point. Concentrations of Compound 1 in plasma were determined by LC-MS quantification.

[2] = test system: Methicillin Resistant Staphylococcus aureus (MRSA, ATCC 33591); experiment: Neutropaenic mouse thigh infection model, further experiment; assay type: in vivo, mice; details: IV 2 and 14 h after infection; 2.5-50 mg/Kg; thigh at 26 h
Protocol: In a further experiment groups of 6 male ICR mice weighing 24±2 g were used. Test animals were immunosuppressed by 2 intraperitoneal injections of cyclophosphamide, the first at 150 mg/Kg 4 days before infection (day-4) and the second at 100 mg/Kg 1 day before infection (day-1). On day 0, individual animals were inoculated intramuscularly (IM) into the right thigh of test animals with 1.5×10^5 CFU/mouse of Methicillin Resistant Staphylococcus aureus (MRSA, ATCC 33591) suspended in 100 μL of sterile PBS, pH 7.4. Vehicle and test substances were administered intravenously (IV) at a dose volume of 8 mL/Kg, 2 and 14 hours after thigh infection. Example 1 was dissolved in 5% dextrose/1 mM potassium phosphate, pH 5.0 and administered at doses of 2.5, 5, 10, 15, 25 and 50 mg/Kg. At 26 hours after inoculation, muscle of the right thigh of each test mouse was harvested. From an additional group with no treatment, muscle of the right thigh was harvested at 2 hours after inoculation for the basal CFU determination. The removed muscle tissues were then homogenized in 3-4 mL of PBS, pH 7.4 with a ceramic mortar. Homogenates of 0.1 mL were used for serial 10-fold dilutions and plated on Mueller Hinton broth in 1.5% Bacto agar for CFU determination.

[3] = Laser beam light scattering through cuvette (FIG. 1); assay type: physicochemical; details: naked eye
Source text: FIG. 1 is a series of photographs of two control formulations (glucose and vancomycin) and a formulation of Example 1, after a laser beam has been shone through a cuvette containing the same. […] In each case the presence or absence of the beam in the samples is clearly visible to the naked eye.
The colloid formulation according to the present invention is distinguished from a solution by the fact that a polarised beam of light, such as from laser, shone through the formulation, for example held in a 1 cm cuvette, causes the formulation to scatter light visible to the naked eye therefrom, for example in the form of a beam. Whilst not wishing to be bound by theory, this luminous path may be known as a Tyndall beam or Rayleigh scatter, both of which are a result of the scattering of the light by the particles in the colloid.

[4] = test system: Staphylococcus aureus methicillin resistant ATCC 33591; experiment: Mouse bacteraemia model, SC dosing; assay type: in vivo, mice
Protocol: In Vivo Efficacy of Compounds in a Mouse Bacteraemia Model
Groups of 6 male CD-1 (Crl.) derived mice weighing 24±2 g were used. Mice were inoculated intraperitoneally (IP) with an LD90-100 of Staphylococcus aureus methicillin resistant ATCC 33591 (1.1×10^7CFU/mouse) in 0.5 mL of BHI broth containing 5% mucin. Example 1 and vancomycin were dissolved in 15% HPbetaCD/4.4% glucose/0.5 mM KH2PO4, pH 5.0 and doses of 1, 3, 5, 10 and 20 mg/Kg were administered subcutaneously (SC) to test animals at 0, 2 and 24 hour(s) after bacteria challenge. The dosing volume was 5 mL/Kg. Mortality was recorded once daily for 7 days. The ED50 for each compound was determined by nonlinear regression.

[5] = test system: Methicillin Resistant Staphylococcus aureus (MRSA, ATCC 33591); experiment: Neutropaenic mouse thigh infection model; assay type: in vivo, mice; details: for antimicrobial effect: 5, 10, 20, 30 and 40 mg/Kg x2 IV
Protocol: Efficacy of Compounds in a Neutropaenic Mouse Thigh Infection Model.
In vivo efficacy of compounds of the present invention in the treatment of bacterial tissue infections was evaluated using a neutropaenic mouse thigh model.
Groups of 6 male ICR mice weighing 24±2 g were used. Test animals were immuno-suppressed by 2 intraperitoneal injections of cyclophosphamide, the first at 150 mg/Kg 4 days before infection (day-4) and the second at 100 mg/Kg 1 day before infection (day−1). On day 0, individual animals were inoculated intramuscularly (IM) into the right thigh of test animals with 1.15×10^5 CFU/mouse of Methicillin Resistant Staphylococcus aureus (MRSA, ATCC 33591) suspended in 100 μL of sterile PBS, pH 7.4. Vehicle and test substances were administered intravenously (IV) at a dose volume of 6 mL/Kg, 2 and 14 hours after thigh infection. Example 1 and vancomycin were dissolved in 15% hydroxypropyl-beta-cyclodextrin/4.4% glucose/1.5 mM potassium phosphate buffer, pH 7.0 and administered at doses of 5, 10, 20, 30 and 40 mg/Kg. At 26 hours after inoculation, muscle of the right thigh of each test mouse was harvested. From an additional group with no treatment, muscle of the right thigh was harvested at 2 hours after inoculation for the basal CFU determination. The removed muscle tissues were then homogenized in 3-4 mL of PBS, pH 7.4 with a ceramic mortar. Homogenates of 0.1 mL were used for serial 10-fold dilutions and plated on Mueller Hinton broth in 1.5% Bacto agar for CFU determination.

[6] = test system: Staphylococcus aureus methicillin resistant ATCC 33591; experiment: Mouse bacteraemia model, second experiment, IV dosing; assay type: in vivo, mice; details: for number of deaths: 7 days, groups of 6; for survival of mice after 7 days: 1, 3, 5 and 10 mg/kg IV
Protocol: In a second experiment Groups of 6 male CD-1 (Crl.) derived mice weighing 24±2 g were used. Mice were inoculated intraperitoneally (IP) with an LD90-100 of Staphylococcus aureus methicillin resistant ATCC 33591 (1.35×10^8 CFU/mouse) in 0.5 mL of BHI broth containing 5% mucin. Example 1 was dissolved in 5% dextrose/1.5 mM potassium phosphate, pH 5.0 and doses of 1, 3, 5 and 10 mg/Kg were administered intravenously (IV) to test animals at 1 and 13 hour(s) after bacteria challenge. The dosing volume was 5 mL/Kg. Mortality was recorded once daily for 7 days.

With `CC[C@H](C)[C@@H]1NC(=O)[C@@H]2NC(=O)[C@H](CC(C)C)NC(=O)[C@H](NC(=O)[C@@H]3CSC[C@@H](N)C(=O)N[C@@H](CO)C(=O)NCC(=O)N[C@@H](Cc4c[nH]c5ccccc45)C(=O)N[C@@H](C(C)C)C(=O)N3)[C@H](C)SC[C@H](NC(=O)[C@H](CCC(=O)O)NC1=O)C(=O)NCC(=O)N[C@H]1C(=O)N[C@@H](CC(C)C)C(=O)N[C@@H](C(C)C)C(=O)N[C@@H](CS[C@H]2C)C(=O)N[C@@H](C)C(=O)N[C@H](C(=O)NCc2cc(Cl)cc(Cl)c2)CS[C@H]1C` [Compound 1, Deoxyactagardine B (3,5-dichlorobenzylamine)monocarboxamide] the half-life [1] was roughly 2 h.

For `CN[C@H](CC(C)C)C(=O)N[C@H]1C(=O)N[C@@H](CC(N)=O)C(=O)N[C@H]2C(=O)N[C@H]3C(=O)N[C@H](C(=O)N[C@H](C(=O)O)c4cc(O)cc(O)c4-c4cc3ccc4O)[C@H](O)c3ccc(c(Cl)c3)Oc3cc2cc(c3O[C@@H]2O[C@H](CO)[C@@H](O)[C@H](O)[C@H]2O[C@H]2C[C@](C)(N)[C@H](O)[C@H](C)O2)Oc2ccc(cc2Cl)[C@H]1O` [vancomycin, reference compound], the “bacterial counts in the thigh tissue (FIG. 3)” value [2] was “dose dependent reduction in the bacterial counts”, the “visibility of laser beam through formulation (light scattering)” value [3] was “the beam is not visible” and the “antimicrobial effect against S. aureus (MRSA) in mice” value ([4]; 3, 5, 10 and 20 mg/Kg x3, SC) was “significant antimicrobial effect”. The ED50 ([4]; Staphylococcus aureus, ATCC33591, SC at 0, 2 and 24 h after challenge, mortality over 7 days, nonlinear regression, read-out: estimated ED50) was 3 mg/kg, the “reductions of CFU/g” value ([5]; 30 mg/kg and above, x2 IV, thigh at 26 h) was greater than 100 fold and the antimicrobial effect [5] was “significant antimicrobial effect”. The “reduction of CFU/g, highest attained” value ([5]; doses 5-40 mg/Kg x2 IV, thigh at 26 h) was ≤ 1,000 fold, the number of deaths ([6]; 1 mg/kg IV at 1 and 13 h) was 5 and the number of deaths ([6]; 3 mg/kg IV at 1 and 13 h) was 3. The number of deaths ([6]; 5 mg/kg IV at 1 and 13 h) was 1, the number of deaths ([6]; 10 mg/kg IV at 1 and 13 h) was 0 and the “survival of mice after 7 days” value [6] was “dose-dependent increase in survival”.

For “Deoxyactagardine B (3,5-dichlorobenzylamine)monocarboxamide [Example 1]”, the “bacterial counts in the thigh tissue (FIG. 3)” value [2] was “dose dependent reduction in the bacterial counts”, the “visibility of laser beam through formulation (light scattering)” value [3] was “the beam is visible” and the survival rate ([4]; 3 mg/Kg, SC) was 100%. For the same compound, the “antimicrobial effect against S. aureus (MRSA) in mice” value ([4]; 3, 5, 10 and 20 mg/Kg x3, SC) was “significant antimicrobial effect”, the “increase in survival rate” value ([4]; 3, 5, 10 and 20 mg/Kg x3, SC) was “at least 50%” and the “estimated ED50” value ([4]; SC at 0, 2 and 24 h after challenge, mortality over 7 days, nonlinear regression) was 1.07 mg/kg. For the same compound, the “reduction in CFU/g” value ([5]; 10 mg/kg and above, x2 IV, thigh at 26 h) was greater than 1.000 fold, the antimicrobial effect [5] was “significant antimicrobial effect” and the number of deaths ([6]; 1 mg/kg IV at 1 and 13 h) was 5. It also gave a number of deaths ([6]; 3 mg/kg IV at 1 and 13 h) of 4, a number of deaths ([6]; 5 mg/kg IV at 1 and 13 h) of 1 and a number of deaths ([6]; 10 mg/kg IV at 1 and 13 h) of 1. The “survival of mice after 7 days” value [6] was “dose-dependent increase in survival”.
